The values that follow are results of earlier work, collected in patent US20020022041A1, “Composition and process for treating pollution” (priority 2000, published 2002).

SMILES strings stand for the structures.

The conditions of this data set: non-toxic as defined by Section 313 Title III of SARA.
Turning to `CCCCOCCOCCO` [2-, 2-(2-butoxyethoxy)ethanol], the Toxicity result was “Non toxic”.
Regarding `CCCCCCCCCCCCOP(=O)(O)O` [Lauryl Phosphate Soln, Lauryl Phosphate], the Toxicity entry is “Non toxic”.
As to `CCCCCCCC/C=C\CCCCCCCC(=O)O` [Oleic Acid], the Toxicity entry is reported as “Non toxic”.
